“Also recorded” adds a separate entry of the source. Like-named read-outs stand apart in the source and are kept apart here.
Experiments:
Rat toxicology, NOAEL = settings: male, in vivo
Experimental: The initial dose in the first cohort was ≤ 1/10 of the human equivalent dose (HED) estimated from the NOAEL (no observed adverse effect level) of the (male) rat, which is the most sensitive species, following the FDA guidance on the maximum recommended starting dose (MRSD) and EMA guidelines. The NOAEL of the rat is 6 mg/kg. […] The HED of 0.97 mg/kg was calculated; this scaled in a 70 kg human to 68 mg. Adjusting this dose to 1/10, the dose of the first cohort was 6.8; the actual administered dose will be 5 mg.

HTT protein = assay: Phase 1 study, HTT protein in blood of healthy volunteers (MAD); format: in vivo, human; settings: after 21 days of treatment (MAD)
From the text: (§1) The multiple ascending (MAD) part of the study was randomized, double-blind, and placebo controlled in healthy male and female subjects. Up to five regimens are planned to be tested in up to 5 cohorts of 8 subjects each (Cohort 2.1 to 2.5). Within each cohort, 6 subjects were to receive Compound 1 and 2 subjects were to receive placebo. Subjects in Cohort 2.1 and 2.2 were to be dosed for 14 days, subjects in Cohort 2.3 to 2.5 were to be dosed for up to 21 days.
In untreated cells, there is a steady state level of mRNA and protein because the amount of mRNA or protein being synthesized matches the amount that is being degraded, so that the mRNA and protein levels are the same over time. The addition of Compound 1 triggers the inclusion of the HTT pseudoexon into the transcript which results in the rapid decay of the HTT mRNA and a reduction of HTT mRNA to […]. […] In this example, ˜50% of newly synthesized mRNA was inhibited. Of the HTT mRNA synthesized prior to treatment, about 50% is degraded after 24 hours. The HTT protein level depends on how much mRNA is produced. Thus, a reduction by 50% would cause a 50% reduction of the HTT protein. […] Changes in HTT protein levels were assessed in MAD cohort over a longer period of time. Accordingly, healthy subjects were treated for 21 days before the amount of HTT mRNA and protein was measured in blood samples taken from each subject. […]

HTT mRNA [1] = assay: Phase 1 study, HTT mRNA in whole blood of healthy volunteers; format: in vivo, human; settings: for Mean decrease in full-length HTT mRNA levels: after 14 days of treatment (MAD)
Experimental: The Phase 1 study was conducted in 5 parts: single ascending doses (SAD)(Part 1), multiple ascending doses (MAD)(Part 2), CSF and blood sampling after 7 days of Compound 1 administration (Part 3), food effect (Part 4), and multiple dosing for up to 28 days (Part 5). Part 1, Part 2, and Part 5 are double blind; Part 3 and Part 4 are open-label. Note that Part 3, Part 4, and Part 5 may be conducted concurrently.
The single ascending dose (SAD) part of the study was randomized, double-blinded, and placebo controlled in healthy male and female subjects.
as §1
The amount of HTT mRNA was then evaluated by RT-PCR 6 hours after administration of Compound 1 on day 14.

[2] = Phase 1 study, safety and tolerability in healthy subjects; format: in vivo, human
Experimental: The study was monitored by a Safety Review Committee (SRC). […] Safety and tolerability were assessed by the SRC between each cohort prior to ascending from one dose level to the next higher dose level in Part 1 (single ascending dose [SAD]) and Part 2 (multiple ascending dose [MAD]), and prior to initiating Part 3 (CSF), Part 4 (FE), and Part 5.
Change from baseline to each scheduled time point up to EOS for vital signs; Change from baseline to each scheduled time point up to EOS for ECG parameters; Change from baseline to each scheduled time point up to EOS for clinical laboratory tests; Changes from baseline in C-SSRS scores (Part 2, Part 3, and Part 5 only); Treatment-emergent adverse events (AEs) up to EOS; Treatment-emergent AEs leading to premature discontinuation of study drug; Treatment-emergent serious adverse events (SAEs) up to EOS; and, Abnormalities in physical examination.

[3] = Phase 1 study, pharmacokinetics in plasma and CSF, food effect; format: in vivo, human
From the text: The concentrations of Compound 1 in plasma and CSF were to be assessed in an open-label design in healthy male and female subjects. A single dose of Compound 1 was to be administered daily for 7 days in 1 cohort of 6 subjects (Cohort 3.1). The dose level of Part 3 was to be determined based upon a review of the safety, tolerability, and PK data of Part 1 and Part 2 of the study. While the MAD dose was to be determined further in development, that dose and schedule was to be applied to this part of the study.
Eligibility was to be assessed during a screening period of up to 28 days. Subjects were to check into the clinic 1 day before dosing (Day −1). On the morning of Day 1 to Day 7, Compound 1 was to be orally administered after an overnight fast of at least 10 hours each day. Serial sampling of CSF and sampling of plasma for drug concentrations was to be performed on Day 7. The exact timing of the CSF and blood samples was to be determined based on the results of Part 1 and Part 2. […]
The food effect (FE) part was a parallel, open-label part in healthy male and female subjects in up to 3 cohorts of 6 subjects each. […] The dose levels for this part were to be chosen based upon a review of available safety, tolerability and PK data as determined in Part 1 and Part 2.

[4] = PK-PD compartment model and decay-rate modelling of HTT mRNA and protein lowering; set-up: species or system human; settings: 30 mg daily dose, model based on half-life
From the text: (§2) HTT mRNA reaches steady state after approximately 5 days. For HTT protein, the half-life was estimated to be 5-7 days and consequently HTT protein steady state levels would only be attained about 6 weeks from the beginning of treatment.
(§3) A target 30% to 50% decrease in mHTT is the range associated with decreased pathology and anticipated therapeutic benefit in patients. In the Phase 1 study, Compound 1-mediated HTT pre-mRNA splicing was dose dependent across all cohorts in both the SAD and MAD portions of the study. Mean decreases in full-length HTT mRNA levels of 40% and 60% were observed after 14 days of treatment with Compound 1 at 15 mg and 30 mg, respectively. On the basis of these clinical data, a PK-PD compartment model was used to simulate percentage of mRNA decreases (and thus the anticipated magnitude of HTT protein lowering) at additional potential clinical doses.

HTT mRNA [5] = assay: as above; set-up: species or system human
From the text: as §2, §3

CC1(C)CC(n2nnc3cc(-c4ccc(-n5nccn5)cc4O)nnc32)CC(C)(C)N1 [Compound 1, 2-[3-(2,2,6,6-tetramethylpiperidin-4-yl)-3H-[1,2,3]triazolo[4,5-c]pyridazin-6-yl]-5-(2H-1,2,3-triazol-2-yl)phenol]
NOAEL (Rat toxicology, NOAEL; (male) rat, germ cell exfoliation in epididymis and testes, read-out: NOAEL (no observed adverse effect level)): 6 mg/kg | NOAEL (Rat toxicology, NOAEL; from rat NOAEL, read-out: human equivalent dose (HED) estimated from the NOAEL): 0.97 mg/kg | lowering in the amount of HTT protein (HTT protein): approximately 40% | Mean decrease in full-length HTT mRNA levels (HTT mRNA [1]; 15 mg): 40% | Mean decrease in full-length HTT mRNA levels (HTT mRNA [1]; 30 mg): 60% | maintenance of splicing following the last dose (HTT mRNA [1]; MAD cohort): up to 72 hours | HTT mRNA in whole blood (HTT mRNA [1]; MAD: 15 mg or 30 mg for 14 days, 6 hours after dose on day 14): dose-dependent lowering of HTT mRNA | time for HTT mRNA levels to reach steady state (HTT mRNA [1]; Multiple Ascending Dose Study): 4 to 5 days | total amount of HTT mRNA (HTT mRNA [1]; SAD cohort, 24 hours after dose, even with higher concentrations): about 50 % of baseline | persistence of HTT splicing effect post cessation of treatment (HTT mRNA [1]; SAD cohorts): 72 h | HTT mRNA in whole blood (HTT mRNA [1]; SAD: 5, 15, 45, 90 or 135 mg, 24 hours after dose): dose-dependent lowering of HTT mRNA | HTT mRNA lowering (target level achieved) (HTT mRNA [1]; lowest dose tested, both SAD and MAD cohorts): 30-50% | dose-limiting toxicities ([2]; SAD and MAD portions): no events considered to be dose-limiting toxicities | laboratory abnormalities and ECG findings ([2]; any dose, SAD and MAD portions): no clinically significant laboratory abnormalities or electrocardiogram (ECG) findings | safety and tolerability ([2]; single doses 5 to 135 mg, multiple doses 15 and 30 mg up to 21 days): well-tolerated with no safety-related findings; also recorded: safe and generally well tolerated | drug half-life ([3]; MAD cohort): long drug half-life | Compound levels in the CSF compared with plasma ([3]; healthy subjects, 30 mg daily dose): equal to or greater than levels observed in plasma | predicted time for HTT protein steady state levels [4]: about 6 weeks | predicted percent full-length HTT mRNA decrease from baseline (HTT mRNA [5]; 10 mg QD and 20 mg QD, PK-PD compartment model): 30 to 50% | predicted time for HTT mRNA to reach steady state (HTT mRNA [5]; 30 mg daily dose, model based on half-life): approximately 5 days

From US20220162610A1, “NOVEL RNA TRANSCRIPT” (PTC Therapeutics, Inc., priority 2020, published 2022)
